The conditions of series [1]: for mass density / viscosity: 100.9 kPa, Liquid; for mass density: Vibrating tube method; for viscosity: Cone and plate viscometry; for Triple point temperature: Crystal; for Triple point temperature / Glass transition temperature: DSC.
A short description of series [2]: Molar enthalpy of transition or fusion. The note with it: Crystal; DSC.

Numbers after ± are expanded uncertainties.

We go through eight molecules from the NIST ThermoML archive (doi:10.1021/acs.jced.9b00776).

One may read the mass density as mass per unit of volume. One may read the viscosity as the resistance of a fluid to flow. On to `C[n+]1ccn(C(C)(C)C)c1.O=S(=O)([N-]S(=O)(=O)C(F)(F)C(F)(F)F)C(F)(F)C(F)(F)F`, for which the mass density was 1530.8 ± 2 kg/m3 in series [1] (293.15 K); 1525.2 ± 2 kg/m3 in series [1] (298.15 K); 1519.9 ± 2 kg/m3 in series [1] (303.15 K); 1509.6 ± 2 kg/m3 in series [1] (313.15 K); 1498.9 ± 2 kg/m3 in series [1] (323.15 K); 1488.6 ± 2 kg/m3 in series [1] (333.15 K). The values for the mass density in series [1] (343.15 K) and in series [1] (353.15 K) were 1478.4 ± 2 kg/m3 and 1467.8 ± 2 kg/m3, respectively. Besides, the viscosity in series [1] (293.2 K) amounted to 571.1 ± 53 mPa·s; in series [1] (298.2 K) it was 367.2 ± 33 mPa·s; in series [1] (303.2 K), 246.7 ± 21 mPa·s; in series [1] (313.2 K) it was 126.1 ± 10 mPa·s; in series [1] (323.2 K) it was 80.9 ± 6.6 mPa·s; in series [1] (333.2 K), 50.7 ± 4.1 mPa·s. Moreover, the viscosity in series [1] (343.2 K) amounted to 33.9 ± 2.7 mPa·s; in series [1] (353.2 K), 23.8 ± 1.9 mPa·s. For the same molecule, the Triple point temperature in series [1] was determined as 294.3 ± 1.8 K. Moreover, the Glass transition temperature in series [1] was -58.0 ± 1.8 °C. Besides, in series [2], the “Molar enthalpy of transition or fusion” value came out at 3.99 ± 0.12 kcal/mol.
As to `CC(C)[n+]1ccn(C)c1.O=S(=O)([N-]S(=O)(=O)C(F)(F)F)C(F)(F)F`, the mass density came out at 1481.9 ± 2 kg/m3 in series [1] (293.15 K); 1476.8 ± 2 kg/m3 in series [1] (298.15 K); 1472 ± 2 kg/m3 in series [1] (303.15 K); 1462.5 ± 2 kg/m3 in series [1] (313.15 K); 1452.4 ± 2 kg/m3 in series [1] (323.15 K); 1442.9 ± 2 kg/m3 in series [1] (333.15 K). Also, the mass density worked out at 1433.4 ± 2 kg/m3 in series [1] (343.15 K) and 1423.7 ± 2 kg/m3 in series [1] (353.15 K). Also, the viscosity was found to be 58.3 ± 4.7 mPa·s in series [1] (293.2 K); 45.5 ± 3.7 mPa·s in series [1] (298.2 K); 36.9 ± 3 mPa·s in series [1] (303.2 K); 24.5 ± 2 mPa·s in series [1] (313.2 K); 19.3 ± 1.6 mPa·s in series [1] (323.2 K); 14.5 ± 1.2 mPa·s in series [1] (333.2 K). For the same molecule, the viscosity in series [1] (343.2 K) is 11.2 ± 0.9 mPa·s; in series [1] (353.2 K), 8.9 ± 0.7 mPa·s. Further, in series [1], the Triple point temperature stood at 283.5 ± 1.8 K. For the same molecule, in series [2], the “Molar enthalpy of transition or fusion” value was 5.78 ± 0.167 kcal/mol.
For the molecule `C[n+]1ccn(C(C)(C)C)c1.[I-]` [1-tert-butyl-3-methylimidazolium iodide], the Triple point temperature in series [1] was 432.7 ± 1.8 K. Also, the “Molar enthalpy of transition or fusion” value in series [2] is 3.63 ± 0.12 kcal/mol.
As to `CC(C)n1cc[n+](C)c1.O=S(=O)([N-]S(=O)(=O)C(F)(F)C(F)(F)F)C(F)(F)C(F)(F)F`, the mass density in series [1] (293.15 K) stood at 1556.7 ± 2 kg/m3; in series [1] (298.15 K) it was 1551.3 ± 2 kg/m3; in series [1] (303.15 K), 1546 ± 2 kg/m3; in series [1] (313.15 K), 1535.5 ± 2 kg/m3; in series [1] (323.15 K) it was 1524.6 ± 2 kg/m3; in series [1] (333.15 K), 1514 ± 2 kg/m3. Also, the mass density stood at 1503.5 ± 2 kg/m3 in series [1] (343.15 K) and 1492.8 ± 2 kg/m3 in series [1] (353.15 K). Also, the viscosity in series [1] (293.2 K) was 172.6 ± 14 mPa·s; in series [1] (298.2 K), 121.4 ± 10 mPa·s; in series [1] (303.2 K), 91.7 ± 7.5 mPa·s; in series [1] (313.2 K), 53 ± 4.3 mPa·s; in series [1] (323.2 K) it was 38 ± 3.1 mPa·s; in series [1] (333.2 K), 26.4 ± 2.1 mPa·s. The viscosity is 19.1 ± 1.5 mPa·s in series [1] (343.2 K) and 14.4 ± 1.2 mPa·s in series [1] (353.2 K). Moreover, the Glass transition temperature in series [1] is -75.7 ± 1.8 °C.
For the molecule `CC(C)[n+]1ccn(C)c1.[I-]` [1-methyl-3-(1-methylethyl)imidazolium iodide], the Triple point temperature in series [1] turned out to be 383.4 ± 1.8 K. The “Molar enthalpy of transition or fusion” value in series [2] was found to be 3.9 ± 0.12 kcal/mol.
Turning to `C[n+]1ccn(C(C)(C)C)c1.O=S(=O)([N-]S(=O)(=O)C(F)(F)F)C(F)(F)F`, the mass density in series [1] (293.15 K) stood at 1451.5 ± 2 kg/m3; in series [1] (298.15 K), 1446.6 ± 2 kg/m3; in series [1] (303.15 K), 1442 ± 2 kg/m3; in series [1] (313.15 K), 1432.8 ± 2 kg/m3; in series [1] (323.15 K), 1423.1 ± 2 kg/m3; in series [1] (333.15 K) it was 1413.8 ± 2 kg/m3. The mass density in series [1] (343.15 K) is listed as 1404.5 ± 2 kg/m3; in series [1] (353.15 K) it was 1395 ± 2 kg/m3. Moreover, the viscosity is on record as 167.3 ± 14 mPa·s in series [1] (293.2 K); 121.4 ± 10 mPa·s in series [1] (298.2 K); 91.5 ± 7.4 mPa·s in series [1] (303.2 K); 55.6 ± 4.5 mPa·s in series [1] (313.2 K); 37.5 ± 3 mPa·s in series [1] (323.2 K); 26.2 ± 2.1 mPa·s in series [1] (333.2 K). In addition, the viscosity in series [1] (343.2 K) was 19 ± 1.5 mPa·s; in series [1] (353.2 K), 14.5 ± 1.2 mPa·s. The Triple point temperature in series [1] turned out to be 280.4 ± 1.8 K. In series [2], the “Molar enthalpy of transition or fusion” value stood at 5.47 ± 0.167 kcal/mol.
For the molecule `C[n+]1ccn(C(C)(C)C)c1.F[P-](F)(F)(F)(F)F` [1-tert-butyl-3-methylimidazolium hexafluorophosphate], the Triple point temperature in series [1] worked out at 421 ± 1.8 K. In addition, the “Molar enthalpy of transition or fusion” value in series [2] was 5.52 ± 0.167 kcal/mol.
For `CC(C)[n+]1ccn(C)c1.F[P-](F)(F)(F)(F)F` [1-methyl-3-(1-methylethyl)imidazolium hexafluorophosphate], in that order: 374 ± 1.8 K and 3.75 ± 0.12 kcal/mol.
